Measured values from patent US20040005537A1, “Method of identifying toxic agents using differential gene expression” (priority 2000, published 2004).

What was measured:
[1] = grouping used to generate the distinguishing gene profiles; cited from earlier work
rat heart tissue = test: GENECALLING differential gene expression analysis after dosing of serotonin modulating agents; format: in vivo, Sprague Dawley rats
Method in brief: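 Rats dosed with serotonin modulating agents, controls given sterile water or canola oil; tissue taken 24 h after the last dose. Total RNA converted to cDNA and profiled by GENECALLING differential expression analysis; fragments changed more than ±1.5-fold were selected.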

Compound: CC(C)CC(N(C)C)C1(c2ccc(Cl)cc2)CCC1 (stereo not drawn) [sibutramine]
- classification as cardiotoxic or noncardiotoxic serotonin modulating agent [1]: noncardiotoxic
- Effects on Transcription Level: Novel gene fragment, 524 bp, 86% SI to mouse F-box protein FBX6b [AF176526] (rat heart tissue; CARDIOTOX 1): +1.3 fold
- Effects on Transcription Level: Novel gene fragment, 306 bp, 91% SI to mouse low density lipoprotein receptor related protein 4 [AB013874] (rat heart tissue; CARDIOTOX 2): −1.3 fold
- Effects on Transcription Level: Novel gene fragment, 540 bp, 97% SI to mouse skeletal muscle alpha-actin [X03766] (rat heart tissue; CARDIOTOX 3): −1.1 fold
- Effects on Transcription Level: Novel gene fragment, 80 bp (rat heart tissue; CARDIOTOX 4): −1.3 fold
- Effects on Transcription Level: Novel gene fragment, 957 bp, 99% SI to kidney injury associated moleculer HW036 [V80591] (rat heart tissue; CARDIOTOX 5): −1.0 fold
- Effects on Transcription Level: Novel gene fragment, 282 bp, 85% SI to human KIAA1515 protein [AB040948] (rat heart tissue; CARDIOTOX 6): −1.4 fold
- Effects on Transcription Level: Novel gene fragment, 405 bp, 88% SI to human 2-oxoglutarate dehydrogenase [D10523] (rat heart tissue; CARDIOTOX 7): −1.4 fold
- Effects on Transcription Level: UCP2 (rat heart tissue; CARDIOTOX 8, GenBank AB010743): −1.3 fold
- Effects on Transcription Level: Plasma membrane Ca2 + ATPase-isoform 1 (rat heart tissue; CARDIOTOX 9, GenBank J03753): +1.2 fold
- Effects on Transcription Level: Novel gene fragment, 242 bp, 97% SI to mouse HSP86 heat-shock protein [X16857] (rat heart tissue; CARDIOTOX 10): +1.4 fold
- Effects on Transcription Level: Novel gene fragment, 280 bp, 65% SI to human TRF1-interacting, ankyrin-related ADP-ribose polymerase [AF082556] (rat heart tissue; CARDIOTOX 11): +1.2 fold
- Effects on Transcription Level: Novel gene fragment, 348 bp, 88% SI to mouse Sec61 protein complex gamma subunit [U11027] (rat heart tissue; CARDIOTOX 12): +1.4 fold
- Effects on Transcription Level: Novel gene fragment 553 bp, 93% SI to mouse Sid329 [AB024984] (rat heart tissue; CARDIOTOX 13): +1.1 fold
- Effects on Transcription Level: Kruppel-like transcription factor (rat heart tissue; CARDIOTOX 14, GenBank AB020759): +1.1 fold
- Effects on Transcription Level: Ribosomal protein L3 (rat heart tissue; CARDIOTOX 15, GenBank X62166): +1.3 fold
- Effects on Transcription Level: Glucose-regulated protein (GRP) 75 (rat heart tissue; CARDIOTOX 16, GenBank S78556): +1.1 fold
- Effects on Transcription Level: Immunoglobulin heavy chain binding protein (BiP) (rat heart tissue; CARDIOTOX 17, GenBank M14050): −1.1 fold
- Effects on Transcription Level: Membrane-spannining proteoglycan NG2 (rat heart tissue; CARDIOTOX 18, GenBank X56541): −1.1 fold
- Effects on Transcription Level: Novel gene fragment, 1294 bp, 96% SI to mouse Sui 1 (elF) homolog [AF129888] (rat heart tissue; CARDIOTOX 19): +1.1 fold
- Effects on Transcription Level: Novel gene fragment, 723 bp, 85% SI to human translation initiation factor elF3 p40 subunit [U54559] (rat heart tissue; CARDIOTOX 20): −1.1 fold
- Effects on Transcription Level: Novel gene fragment, 1324 bp, 76% SI to human flavoprotein subunit of complex II [D30648] (rat heart tissue; CARDIOTOX 21): +1.4 fold
- Effects on Transcription Level: Novel gene fragment, 852 bp, 81% SI to human vacuolar proton-ATPase subunit M9.2 [Y15286] (rat heart tissue; CARDIOTOX 22): +1.2 fold
- Effects on Transcription Level: Novel gene fragment, 178 bp, 91% SI to mouse myosin light chain-2 isoform MLC-2a [S70785] (rat heart tissue; CARDIOTOX 23): +1.4 fold
- Effects on Transcription Level: Novel gene fragment, 167 bp, 90% SI to mouse Rab20 [X80332] (rat heart tissue; CARDIOTOX 24): +1.0 fold
- Effects on Transcription Level: Novel gene fragment, 1070 bp, 80% SI to human muscle-specific protein [AF249873] (rat heart tissue; CARDIOTOX 25): +1.2 fold
- Effects on Transcription Level: Novel gene fragment, 1143 bp, 82% SI to human sarcoma amplified sequence (SAS) [U01160] (rat heart tissue; CARDIOTOX 26): +1.3 fold
- Effects on Transcription Level: Novel gene fragment, 74 bp,75% SI to human secreted protein [X30160] (from patent database)/[X97578] (from patent database)/potential cytokine) (rat heart tissue; CARDIOTOX 27): −1.3 fold
- Effects on Transcription Level: Novel gene fragment, 408 bp, 90% SI to human CGI-07 protein [AF132941] (rat heart tissue; CARDIOTOX 28): −1.0 fold
- Effects on Transcription Level: Novel gene fragment, 618 bp, 95% SI to rat progression related cDNA, ZNPE-120 3′ end partial sequence [patent database X90805] (rat heart tissue; CARDIOTOX 29): +1.0 fold
- Effects on Transcription Level: Novel gene fragment, 717 bp (rat heart tissue; CARDIOTOX 30): +1.2 fold
- Effects on Transcription Level: Novel gene fragment, 546 bp (rat heart tissue; CARDIOTOX 31): +1.3 fold
- Effects on Transcription Level: Novel gene fragment, 920 bp, 91% SI to human HSPC061 [AF161546] (rat heart tissue; CARDIOTOX 32): +1.2 fold
- Effects on Transcription Level: Novel gene fragment, 203 bp, 92% SI to rabbit sarcoplasmic reticulum glycoprotein [J04480] (rat heart tissue; CARDIOTOX 33): −1.2 fold
- Effects on Transcription Level: Novel gene fragment, 178 bp, 68% SI to mouse IgG receptor (beta-Fc-gamma-RII)[M63159] (rat heart tissue; CARDIOTOX 34): +1.4 fold
- Effects on Transcription Level: Ribosomal protein L6 (rat heart tissue; CARDIOTOX 35, GenBank X87107): +1.4 fold
- Effects on Transcription Level: CAP2 protein (adenylyl cyclase-associated protein 2) (rat heart tissue; CARDIOTOX 36, GenBank U31935): +1.4 fold
- Effects on Transcription Level: Alpha-platelet-derived growth factor receptor (rat heart tissue; CARDIOTOX 37, GenBank M63837): −1.1 fold
- Effects on Transcription Level: Rab GD1 alpha protein (rat heart tissue; CARDIOTOX 38, GenBank X74402): −1.1 fold
- Effects on Transcription Level: PKC-zeta-interacting protein (rat heart tissue; CARDIOTOX 39, GenBank Y08355): −1.2 fold
- Effects on Transcription Level: ERK or MAP kinase (rat heart tissue; CARDIOTOX 40, GenBank X65198): +1.4 fold
- Effects on Transcription Level: Peroxisomal multifunctional enzyme type II (rat heart tissue; CARDIOTOX 41, GenBank U37486): +1.3 fold
- Effects on Transcription Level: HBP23 (heme-binding protein 23 kDa) (rat heart tissue; CARDIOTOX 42, GenBank D30035): +1.3 fold
- Effects on Transcription Level: Caveolae-associated protein (rat heart tissue; CARDIOTOX 43, GenBank U90725): −1.0 fold
- Effects on Transcription Level: Prenylated rab acceptor 1 (PRA1) (rat heart tissue; CARDIOTOX 44, GenBank AF025506): +1.4 fold
- Effects on Transcription Level: Novel gene fragment, 337 bp, 88% SI to rabbit cardiac ryanodine receptor (RyR-2)[U50465] (rat heart tissue; CARDIOTOX 45): −1.3 fold
- Effects on Transcription Level: Novel gene fragment, 81 bp, 85% SI to human titin [X90568] (rat heart tissue; CARDIOTOX 46): −1.3 fold
- Effects on Transcription Level: Novel gene fragment, 428 bp, 86% SI to human titin [X90568] (rat heart tissue; CARDIOTOX 47): −1.1 fold
- Effects on Transcription Level: Novel gene fragment, 374 bp, 88% SI to human titin [X90568] (rat heart tissue; CARDIOTOX 48): −1.2 fold
- Effects on Transcription Level: Novel gene fragment, 428 bp, 85% SI to human titin [90568] (rat heart tissue; CARDIOTOX 49): −1.3 fold
- Effects on Transcription Level: Novel gene fragment, 1216 bp, 93% SI to mouse mircotubule-associated protein (MAP) 1B protein [AF115776] (rat heart tissue; CARDIOTOX 50): −1.1 fold
- Effects on Transcription Level: Novel gene fragment, 1115 bp, 83% SI to human KIAA0549 protein [AB011121] (rat heart tissue; CARDIOTOX 51): −1.4 fold
- Effects on Transcription Level: Novel gene fragment, 153 bp (rat heart tissue; CARDIOTOX 52): −1.2 fold
- Effects on Transcription Level: Novel gene fragment, 89 bp, 93% SI to human putative glialblastoma cell differentiation-related protein (GBDR1) [AF068195] (rat heart tissue; CARDIOTOX 53): +1.4 fold
- Effects on Transcription Level: Rho-associated kinase beta (rat heart tissue; CARDIOTOX 54, GenBank U61266): −1.1 fold
- Effects on Transcription Level: Adenylate kinase 3 (rat heart tissue; CARDIOTOX 55, GenBank D13062): +1.4 fold
- Effects on Transcription Level: Amyloid beta-peptide binding protein (rat heart tissue; CARDIOTOX 56, GenBank AF049878): +1.3 fold
- Effects on Transcription Level: Mitochondrial adenine nuleotide translocator (rat heart tissue; CARDIOTOX 57, GenBank D12771): +1.4 fold
- Effects on Transcription Level: Novel gene fragment, 710 bp, 94% SI to mouse chromatin structural protein homolog Supt5 hp (Supt5 h)[U88539] (rat heart tissue; CARDIOTOX 58): +7.5 fold
- Effects on Transcription Level: Novel gene fragment, 186 bp, 66% SI to human N-acetylglucosaminyltransferase 1 (GlcNAc-TI)[M55621] (rat heart tissue; CARDIOTOX 60): −1.9 fold
- Effects on Transcription Level: Novel gene fragment, 238 bp, 95% SI to mouse MAP kinase-activated protein kinase 2 [X76850] (rat heart tissue; CARDIOTOX 61): −2.8 fold
- Effects on Transcription Level: Novel gene fragment, 173 bp, 70% SI to G protein-coupled receptor kinase GRK4 [X97568] (rat heart tissue; CARDIOTOX 62): −5.3 fold
- Effects on Transcription Level: Novel gene fragment, 133 bp, 77% SI to human apoptosis related protein hSARP3 [patent database: V19114] (rat heart tissue; CARDIOTOX 63): −2.0 fold
- Effects on Transcription Level: Novel gene fragment, 477 bp, 98% SI to peroxisomal phytanoyl-CoA hydroxylase (PHYH) [AF121345] (rat heart tissue; CARDIOTOX 64): +7.0 fold
- Effects on Transcription Level: Novel gene fragment, 413 bp, 95% SI to mouse dihydrolipoamide dehydrogenase (Dld) [U73445] (rat heart tissue; CARDIOTOX 65): +1.6 fold
- Effects on Transcription Level: Novel gene fragment, 726 bp, 76% SI to human succinate dehydrogenase flavoprotein subunit (SDH) [L21936] (rat heart tissue; CARDIOTOX 66): −3.0 fold
- Effects on Transcription Level: Novel gene fragment, 440 bp, 92% SI to mouse cytochrome c oxidase Vllc [X52940] (rat heart tissue; CARDIOTOX 67): +11.5 fold
- Effects on Transcription Level: Novel gene fragment, 276 bp, 80% SI to human titin [X90568] (rat heart tissue; CARDIOTOX 68): −6.6 fold
- Effects on Transcription Level: Novel gene fragment, 149 bp, 70% SI to human titin [X90568] (rat heart tissue; CARDIOTOX 69): −2.4 fold
